# Key:
# female mice C57BL/6j = experiment: Examination of antifeeding activity: test diets freely fed to mice for 42 days; type: in vivo; conditions: for Total diet intake during test period: C57BL/6j mice
# Description: To examine the antifeeding activity of UHA1028, 8-week-old female mice C57BL/6j (manufactured by CLEA Japan, Inc.) were used. […] The mice were freely fed for 42 days. During the feeding period of test diets, the diet intake and the weight were measured twice a week.
# A required amount of the UHA1028 was obtained by repeating the formation and isolation described in Example 1.
# In Table 2, the amount of each component is represented as g per kg of diet.
# The test diets fed to the control groups are, a normal diet, a high-fat diet, and a high-fat diet containing resveratrol but containing no test substance respectively.
# [1] = test system: agouti-related peptide (AgRP); conditions: reporter assay in cultured cells; cited from earlier work
# NPY = conditions: reporter assay in cultured cells; cited from earlier work
# [2] = 0.4% test substance in high-fat diet, 42 days
SMILES,Total diet intake during test period (female mice C57BL/6j; [2]) [g],"antifeeding activity on long-term administration (female mice C57BL/6j; administered for a long period of time, as in the examples)",expression of AgRP [1],expression of NPY (NPY),change in diet intake (FIG. 2) (female mice C57BL/6j; 0.05% UHA1028-containing high-fat diet versus 0.4% resveratrol intake group),"Total diet intake during test period (female mice C57BL/6j; 0.05% test substance in high-fat diet, 42 days) [g]","Total diet intake during test period (female mice C57BL/6j; 0.1% test substance in high-fat diet, 42 days) [g]","Total diet intake during test period (female mice C57BL/6j; 0.2% test substance in high-fat diet, 42 days) [g]",weight increase (FIG. 3) (female mice C57BL/6j; 0.4% UHA1028 in high-fat diet versus 0.4% resveratrol intake group),"diet intake versus the other groups (female mice C57BL/6j; UHA1028 intake groups 0.05-0.4% in high-fat diet, Table 3)","anatomy of the mice at the end of the test (organs) (female mice C57BL/6j; four UHA1028 intake groups (0.05-0.4%), 42 days)"
"Oc1ccc(C=Cc2cc(O)cc(O)c2)cc1 [Resveratrol, resveratrol, reference compound]",106.7,very low antifeeding activity,suppressed the expression of AgRP and NPY,suppressed the expression of AgRP and NPY,,,,,,,
COc1cc(C(C)c2c(O)cc(/C=C/c3ccc(O)cc3)cc2O)cc(OC)c1O (stereo not drawn) [UHA1028],97.5,,,,significantly reduced as compared with the resveratrol intake group,88.4,87.1,99.9,significantly suppressed as compared with the resveratrol intake group,significantly lower than those of the other groups,no contraction or hypertrophy of organs was observed
